Experimental data taken from PMC9663686, “Proline, hydroxyproline, and pyrrolidone carboxylic acid derivatives as highly efficient but reversible transdermal permeation enhancers” (Scientific Reports, 2022).
Marks after values point to notes of the source that are not given here.

Assays:
[1] = system: HaCaT spontaneously immortalized human keratinocytes; experiment: Neutral red (NR) uptake cell viability assay, HaCaT; format: cell-based; details: 48-h incubation, mean ± SEM, read-out: IC50, HaCaT cells, NR assay
From the text: (§1) Next, the in vitro toxicities of the most promising enhancers Pro3 and Pro4, along with the parent Pro2, on spontaneously immortalized human keratinocytes (HaCaT) and Swiss albino mouse embryonic fibroblasts (3T3) were studied (Fig. 3). […] The cellular toxicities were further probed using the 3-(4,5-dimethylthiazol-2-yl)-2,5-diphenyltetrazolium bromide (MTT) uptake assay, based on the transformation of yellow MTT into purple formazan by mitochondrial reductases of living cells. The MTT assay also yielded toxicity values in tens of µM with trends to higher toxicity with a longer acyl chain length (thus also higher lipophilicity) of enhancers (Fig. 3).
(§2) Cell viability was determined via 3-(4,5-dimethylthiazol-2-yl)-2,5-diphenyltetrazolium bromide (MTT) and neutral red (NR) uptake assays after 48-h incubation with the enhancers (see Supplementary data for details).
(§3) Both cell lines were cultivated in Dulbecco’s modified Eagle’s medium (DMEM, Lonza, Basel, Switzerland) supplemented with 10% heat-inactivated fetal bovine serum (Merck, Darmstadt, Germany), 10 mM HEPES buffer (Merck, Darmstadt, Germany), and 1% penicillin/streptomycin solution (Lonza, Basel, Switzerland) in 75-cm^2 tissue culture flasks (TPP, Trasadingen, Switzerland) at 37°C in a humidified atmosphere of 5% CO2. Subconfluent cells were sub-cultured every 3-4 days.
For toxicity studies, the stock-solutions of studied compounds were prepared in dimethyl sulfoxide (DMSO). These stock samples were diluted to the required concentration by the cell culture medium immediately before adding them onto the cells. The amount of DMSO applied to the cells was kept under its intrinsic measurable toxicity limit (below 1 vol.%). […]
Another approach used for the toxicity assessment was the neutral red (NR) uptake assay. […] The plates were shaken at rt for 30 min, and the optical density of the soluble NR was measured at λ = 540 nm using a Tecan Infinite 200 M plate reader.
(§4) The viability of each experimental group was expressed as the percentage of the untreated controls incubated under the same conditions (100%).

[2] = system: HaCaT spontaneously immortalized human keratinocytes; experiment: MTT cell viability assay, HaCaT; format: cell-based; details: 48-h incubation, mean ± SEM, read-out: IC50, HaCaT cells, MTT assay
From the text: as §1, §2, §3
For toxicity studies, the stock-solutions of studied compounds were prepared in dimethyl sulfoxide (DMSO). […]
After 48-h incubation with the studied enhancer, cell viability was determined via 3-(4,5-dimethylthiazol-2-yl)-2,5-diphenyltetrazolium bromide (MTT) uptake assay based on the transformation of yellow MTT into purple formazan by mitochondrial reductase activity of living cells. […] Afterward, the cell viability was assessed by optical density measurement using a Tecan Infinite 200 M plate reader (Tecan, Grödig, Austria) at λ = 570 nm.
as §4

human skin [3] = experiment: Transepidermal water loss (TEWL) of human skin in vitro, reversibility; details: for TEWL 1 h after the sample had been removed / TEWL 4 h after the sample had been removed / TEWL 8 h after the sample had been removed / TEWL 12 h after the sample had been removed / TEWL 24 h after the sample had been removed: 24-h application of 1% enhancer (1% Azone, 5% SDS) in 60% PG; for TEWL 1 h after the sample had been removed / TEWL 4 h after the sample had been removed / TEWL 8 h after the sample had been removed / TEWL 12 h after the sample had been removed / TEWL 24 h after the sample had been removed / TEWL before sample application (baseline): mean ± SEM; for TEWL values after 24-h treatment (range over the three enhancers): 1% in 60% PG, baseline around 27 g/m^2/h; for time after enhancer removal for TEWL to decline to values similar to baseline: after 24-h application of 1% enhancer in 60% PG
From the text: (§5) We further investigated the direct effects of the selected enhancers on the skin barrier assessed by TEWL and the electrical impedance of human skin in vitro. TEWL is a method commonly used in dermatology[38] to study, for example, the irritant potential of chemicals, skin barrier recovery, or effect of topical formulations, and permeation enhancers[17],[21],[41]–[44]. Electrical impedance measures the opposition of the skin to alternating electrical current and is inversely proportional to the flux of ions. Thus, increased TEWL or decreased impedance indicates a barrier impairment[45],[46]. Electrical impedance or conductance measurements have been used to screen new enhancers or assess the irritation potential of compounds[13],[15],[17],[21],[32],[44],[47]–[50]. Both TEWL and impedance can distinguish between reversible and irreversible effects of enhancers on skin permeability[17],[21],[40],[44],[51].
(§6) Human skin was mounted in Franz diffusion cells in the same way as for the permeation studies. After 1-h equilibration, basal TEWL and impedance values were recorded. Then, 1% enhancer in 60% PG, 60% PG as a negative control, 1% Azone in 60% PG, or 5% SDS in 60% PG as positive (irreversible) controls was applied on the skin (100 µl/cm^2) for 24 h. The residual sample was washed with PBS and gently blotted dry. At 1, 4, 8, 12, and 24 h after sample removal, TEWL, and impedance values were recorded. TEWL was measured using AquaFlux AF 200 (Biox Systems Ltd, London, UK), employing the condenser-chamber measurement method at 26 ± 1.0 °C and 43 ± 3% relative air humidity. Electrical impedance was measured by LCR meter 4080 (Conrad electronic, Hirschau, Germany, measuring range 20 Ω–10 MΩ, error at kΩ values < 0.5%) operated in parallel mode with an alternating frequency of 120 Hz, which was also used in our previous work[21],[44].
(§7) Samples were removed from the skin after 24 h, and TEWL and impedance values were recorded in predetermined time intervals (1, 4, 8, 12, and 24 h after sample removal). Data are presented as the means ± SEM; n ≥ 3. * statistically significant difference compared to the baseline value before the sample application at p < 0.05. ^+ statistically significant compared to the value 1 h after the sample removal at p < 0.05.^ ≠ statistically significant compared to the control (60% PG without enhancer) at the same time point, at p < 0.05.

human skin [4] = experiment: Electrical impedance of human skin in vitro, reversibility; details: for impedance 1 h after the sample had been removed / impedance 4 h after the sample had been removed / impedance 8 h after the sample had been removed / impedance 12 h after the sample had been removed / impedance 24 h after the sample had been removed: 24-h application of 1% enhancer (1% Azone, 5% SDS) in 60% PG; for impedance 1 h after the sample had been removed / impedance 4 h after the sample had been removed / impedance 8 h after the sample had been removed / impedance 12 h after the sample had been removed / impedance 24 h after the sample had been removed / impedance before sample application (baseline): mean ± SEM; for fold decrease of skin impedance compared to baseline (range over enhancers and control): 24 h treatment, baseline 25–29 kΩ × cm^2; for recovery of skin impedance after sample removal: after 24-h application, followed 24 h after removal
From the text: as §5, §6, §7

CCCCCCCCCCCCOC(=O)C1CCCN1C(C)=O (stereo not drawn) [Pro2, N-acetyl proline dodecyl ester]
IC50 [1]: 98.1 ± 4.49 µM
IC50 [2]: 53.2 ± 3.19 µM
TEWL 1 h after the sample had been removed (human skin [3]): 65.4 ± 1.5*^≠ g/m^2/h
TEWL 4 h after the sample had been removed (human skin [3]): 56.0 ± 1.3*^≠ g/m^2/h
TEWL 8 h after the sample had been removed (human skin [3]): 45.9 ± 1.5*^≠+ g/m^2/h
TEWL 12 h after the sample had been removed (human skin [3]): 42.5 ± 2.5*^≠+ g/m^2/h
TEWL 24 h after the sample had been removed (human skin [3]): 41.8 ± 1.0*^≠+ g/m^2/h
TEWL values after 24-h treatment (range over the three enhancers) (human skin [3]): 50–65 g/m^2/h
reversibility of TEWL increase (human skin [3]; after 24-h application, followed 24 h after removal): only partly reversible within 24 h
TEWL before sample application (baseline) (human skin [3]): 25.0 ± 3.0 g/m^2/h
impedance 1 h after the sample had been removed (human skin [4]): 2.8 ± 0.1* kΩ×cm^2
impedance 4 h after the sample had been removed (human skin [4]): 6.0 ± 1.1*^≠ kΩ×cm^2
impedance 8 h after the sample had been removed (human skin [4]): 8.1 ± 1.7*^≠ kΩ×cm^2
impedance 12 h after the sample had been removed (human skin [4]): 8.6 ± 2.0*^≠ kΩ×cm^2
impedance 24 h after the sample had been removed (human skin [4]): 9.4 ± 2.6*^≠+ kΩ×cm^2
fold decrease of skin impedance compared to baseline (range over enhancers and control) (human skin [4]): 5–21 times
recovery of skin impedance after sample removal (human skin [4]): recovered incompletely
impedance before sample application (baseline) (human skin [4]): 25.2 ± 2.1 kΩ×cm^2

CCCCCCCCCCCCOC(=O)C1CCCN1C(=O)CCC (stereo not drawn) [Pro4]
IC50 [1]: 54.6 ± 1.11 µM
IC50 [2]: 33.2 ± 2.02 µM
TEWL 1 h after the sample had been removed (human skin [3]): 49.9 ± 5.2*^≠ g/m^2/h
TEWL 4 h after the sample had been removed (human skin [3]): 39.4 ± 2.5*^+ g/m^2/h
TEWL 8 h after the sample had been removed (human skin [3]): 30.5 ± 1.3^+ g/m^2/h
TEWL 12 h after the sample had been removed (human skin [3]): 26.3 ± 1.8^+ g/m^2/h
TEWL 24 h after the sample had been removed (human skin [3]): 25.0 ± 2.8^+ g/m^2/h
TEWL values after 24-h treatment (range over the three enhancers) (human skin [3]): 50–65 g/m^2/h
time after enhancer removal for TEWL to decline to values similar to baseline (human skin [3]): ≤ 8 h
TEWL before sample application (baseline) (human skin [3]): 27.3 ± 4.1 g/m^2/h
impedance 1 h after the sample had been removed (human skin [4]): 3.8 ± 0.8* kΩ×cm^2
impedance 4 h after the sample had been removed (human skin [4]): 11.5 ± 1.7*^+ kΩ×cm^2
impedance 8 h after the sample had been removed (human skin [4]): 18.3 ± 2.5*^+ kΩ×cm^2
impedance 12 h after the sample had been removed (human skin [4]): 21.2 ± 2.5*^+ kΩ×cm^2
impedance 24 h after the sample had been removed (human skin [4]): 23.8 ± 2.9^+ kΩ×cm^2
fold decrease of skin impedance compared to baseline (range over enhancers and control) (human skin [4]): 5–21 times
recovery of skin impedance after sample removal (human skin [4]): recovered to values similar to baseline within 24 h
impedance before sample application (baseline) (human skin [4]): 28.9 ± 2.6 kΩ×cm^2

CCCCCCCCCCCCOC(=O)C1CCCN1C(=O)CC (stereo not drawn) [Pro3]
IC50 [1]: 74.4 ± 1.75 µM
IC50 [2]: 32.7 ± 2.48 µM
TEWL 1 h after the sample had been removed (human skin [3]): 59.4 ± 5.6*^≠ g/m^2/h
TEWL 4 h after the sample had been removed (human skin [3]): 47.1 ± 1.7*^≠+ g/m^2/h
TEWL 8 h after the sample had been removed (human skin [3]): 36.5 ± 1.1^+ g/m^2/h
TEWL 12 h after the sample had been removed (human skin [3]): 30.2 ± 2.2^+ g/m^2/h
TEWL 24 h after the sample had been removed (human skin [3]): 27.4 ± 2.2^+ g/m^2/h
TEWL values after 24-h treatment (range over the three enhancers) (human skin [3]): 50–65 g/m^2/h
time after enhancer removal for TEWL to decline to values similar to baseline (human skin [3]): ≤ 8 h
TEWL before sample application (baseline) (human skin [3]): 27.5 ± 6.3 g/m^2/h
impedance 1 h after the sample had been removed (human skin [4]): 1.4 ± 0.8* kΩ×cm^2
impedance 4 h after the sample had been removed (human skin [4]): 7.9 ± 0.4*^≠+ kΩ×cm^2
impedance 8 h after the sample had been removed (human skin [4]): 13.1 ± 0.7*^≠+ kΩ×cm^2
impedance 12 h after the sample had been removed (human skin [4]): 15.8 ± 1.0*^≠+ kΩ×cm^2
impedance 24 h after the sample had been removed (human skin [4]): 18.6 ± 0.9*^≠+ kΩ×cm^2
fold decrease of skin impedance compared to baseline (range over enhancers and control) (human skin [4]): 5–21 times
recovery of skin impedance after sample removal (human skin [4]): recovered incompletely
impedance before sample application (baseline) (human skin [4]): 28.9 ± 1.7 kΩ×cm^2
